Values quoted from earlier work, collected in article PMC5867622, “Microginins from a Microcystis sp. Bloom Material Collected from the Kishon Reservoir, Israel” (Marine Drugs, 2018).
Where two headings read alike, the source gives them in different places. Square brackets hold non-standard residues; d marks the D form. Peptide text beside a SMILES is read from it. * marks the point of attachment. X15 = N[C@@H](CCCCCCC(Cl)Cl)[C@H](O)C(=O)*; X1 = N[C@H](CCCCCCC(Cl)Cl)[C@@H](O)C(=O)*; X10 = CCCCCCC[C@@H](N)[C@H](O)C(=O)*; NMeY = CN[C@@H](Cc1ccc(O)cc1)C(=O)O; X3 = CCCCCCC[C@H](NC)[C@H](O)C(=O)*; dNMeY = CN[C@H](Cc1ccc(O)cc1)C(=O)O; hTyr = N[C@@H](CCc1ccc(O)cc1)C(=O)O; X12 = N[C@H](CCCCCCC(Cl)Cl)CC(=O)*; X9 = CCCCCCC[C@H](N)[C@H](O)C(=O)*; X2 = N[C@H](CCCCCCCCl)CC(=O)*; NMeV = CN[C@H](C(=O)O)C(C)C; X8 = CCCCCCCC(N)C(O)C(=O)*

Assays:
ACE = conditions: cited from earlier work
APM = conditions: cited from earlier work; for Activity: APM (ni): Table S1, 'APM, ACE-ni'; for IC50: Table S1, read-out: Activity: APM
[1] = ref 6 (Ishida et al., Tetrahedron 2000)
[2] = Table S1, ref 6 (Ishida et al., Tetrahedron 2000)
[3] = ref 4 (Ishida et al., Tetrahedron 1998)
[4] = Table S1, ref 4 (Ishida et al., Tetrahedron 1998)

CCCCCCC[C@H](N)[C@H](O)C(=O)N(C)[C@@H](CCSC)C(=O)N[C@@H](Cc1ccc(O)cc1)C(=O)N[C@@H](Cc1ccc(O)cc1)C(=O)O [Microginin 674]
Activity (ACE; Table S1, ref 15 (Product of LKT Laboratories, Inc.)): ACE inhibitor

CCC(C)C(NC(=O)C(O)C(N)CCCCCCCCl)C(=O)N(C)C(CC(C)C)C(=O)N1CCCC1C(=O)O (stereo not drawn) [Microginin 91-B]
Activity: APM (ni) (APM; [1]): ni
Activity: ACE (ni) (ACE; [2]): ni

CC(C)C[C@H](NC(=O)[C@H](Cc1ccc(O)cc1)NC(=O)C[C@H](N)CCCCCCCCl)C(=O)N(C)[C@@H](Cc1ccc(O)cc1)C(=O)N1CCC[C@H]1C(=O)O [Microginin 99-A] (X2-YL[NMeY]P-OH)
Activity: APM (ni) (APM; [3]): ni
Activity: ACE (ni) (ACE; [4]): ni

CCCCCCC[C@H](NC)[C@H](O)C(=O)N[C@H](C(=O)N(C)[C@H](C(=O)N(C)[C@@H](Cc1ccc(O)cc1)C(=O)N[C@@H](Cc1ccc(O)cc1)C(=O)O)C(C)C)C(C)C [Microginin 478] (X3-V[NMeV][NMeY]Y-OH)
IC50 (APM; [1]): 132 µM
IC50 (ACE; [2]): 13.2 µM

Microginin 91-A
Activity: APM (ni) (APM; [1]): ni
Activity: ACE (ni) (ACE; [2]): ni

CCCCCCC[C@H](N)[C@H](O)C(=O)N(C)[C@@H](CC[S+](C)[O-])C(=O)N[C@@H](Cc1ccc(O)cc1)C(=O)N[C@@H](Cc1ccc(O)cc1)C(=O)O (stereo partly drawn) [Microginin 690]
Activity (ACE; Table S1, ref 16 (Product of Santa Cruz Biotechnology)): ACE inhibitor

CCCCCCCC(N)C(O)C(=O)N[C@@H](C)C(=O)N[C@H](C(=O)N(C)[C@@H](Cc1ccc(O)cc1)C(=O)N[C@@H](Cc1ccc(O)cc1)C(=O)O)C(C)C (stereo partly drawn) [Microginin] (X8-AV[NMeY]Y-OH)
Activity (ACE; Table S1, activity named without value, ref 1 (Okino et al., Tetrahedron Lett. 1993)): ACE

CCCCCCC[C@@H](N)[C@H](O)C(=O)N[C@@H](C)C(=O)N[C@H](C(=O)N(C)[C@@H](Cc1ccc(O)cc1)C(=O)N[C@@H](CCc1ccc(O)cc1)C(=O)O)C(C)C [Cyanostatin A] (X10-AV[NMeY][hTyr]-OH)
IC50 (APM; ref 9 (Sano et al., Phytochem. 2005)): 55 µM
IC50 (ACE; Table S1, ref 9 (Sano et al., Phytochem. 2005)): 150 µM

CC(C)[C@H](NC(=O)[C@@H](O)[C@@H](N)CCCCCCC(Cl)Cl)C(=O)N(C)[C@H](C(=O)N(C)[C@@H](Cc1ccc(O)cc1)C(=O)N1CCC[C@H]1C(=O)N[C@@H](Cc1ccc(O)cc1)C(=O)O)C(C)C [Microginin 299-B] (X15-V[NMeV][NMeY]PY-OH)
IC50 (APM; ref 2 (Ishida et al., Tetrahedron 1997)): 7.1 µM
Activity: ACE (ni) (ACE; Table S1, ref 2 (Ishida et al., Tetrahedron 1997)): ni

CC(C)[C@H](NC(=O)[C@H](O)[C@H](N)CCCCCCC(Cl)Cl)C(=O)N(C)[C@H](C(=O)N(C)[C@H](Cc1ccc(O)cc1)C(=O)N1CCC[C@@H]1C(=O)O)C(C)C [Microginin 299-D] (X1-V[NMeV][dNMeY][dP]-OH)
IC50 (APM; [3]): 8.5 µM
Activity: ACE (ni) (ACE; [4]): ni

CC(C)C[C@H](NC(=O)[C@H](Cc1ccc(O)cc1)NC(=O)C[C@H](N)CCCCCCC(Cl)Cl)C(=O)N(C)[C@@H](Cc1ccc(O)cc1)C(=O)N1CCC[C@H]1C(=O)O [Microginin 99-B] (X12-YL[NMeY]P-OH)
Activity: APM (ni) (APM; [3]): ni
Activity: ACE (ni) (ACE; [4]): ni

CCCCCCC[C@H](N)[C@H](O)C(=O)N[C@H](C(=O)N(C)[C@H](C(=O)N(C)[C@@H](Cc1ccc(O)cc1)C(=O)N1CCC[C@H]1C(=O)N[C@@H](Cc1ccc(O)cc1)C(=O)O)C(C)C)C(C)C [Microginin 299-C] (X9-V[NMeV][NMeY]PY-OH)
IC50 (APM; [3]): 2.3 µM
Activity: ACE (ni) (ACE; [4]): ni
